Measurements published in ChEMBL document CHEMBL1649198, “Efflux unbalance in Pseudomonas aeruginosa isolates from cystic fibrosis patients” (2009).
Converted amounts (≈) assume the structure as drawn.

Key:
[1] = tested on: Pseudomonas aeruginosa; test: Antimicrobial activity against Pseudomonas aeruginosa isolate 2998 obtained from cystic fibrosis patient by agar dilution method
[2] = tested on: Pseudomonas aeruginosa; test: Antimicrobial activity against Pseudomonas aeruginosa isolate 2716 obtained from cystic fibrosis patient by agar dilution method
[3] = tested on: Pseudomonas aeruginosa; test: Antimicrobial activity against ampicillin- and ticarcillin-resistant Pseudomonas aeruginosa FE60 mutant transformed with pAGH97 carrying mexXY F29S mutant by twofold macrodilution method; type: functional
[4] = tested on: Pseudomonas aeruginosa; test: Antimicrobial activity against Pseudomonas aeruginosa isolate 3066 obtained from cystic fibrosis patient by disk diffusion method; type: functional
[5] = tested on: Pseudomonas aeruginosa; test: Antimicrobial activity against Pseudomonas aeruginosa mutGR1 overexpressing mexXY mutant by twofold macrodilution method; type: functional
[6] = tested on: Pseudomonas aeruginosa; test: Antimicrobial activity against Pseudomonas aeruginosa isolate 615R obtained from cystic fibrosis patient by disk diffusion method; type: functional
[7] = tested on: Pseudomonas aeruginosa; test: Antimicrobial activity against ampicillin- and ticarcillin-resistant Pseudomonas aeruginosa FE60 mutant transformed with pAGH97 carrying mexXY F1018L mutant by twofold macrodilution method; type: functional
[8] = tested on: Pseudomonas aeruginosa; test: Antimicrobial activity against Pseudomonas aeruginosa isolate 2729 obtained from cystic fibrosis patient by disk diffusion method; type: functional
[9] = tested on: Pseudomonas aeruginosa; test: Antimicrobial activity against Pseudomonas aeruginosa isolate 2933 obtained from cystic fibrosis patient by disk diffusion method; type: functional
[10] = tested on: Pseudomonas aeruginosa; test: Antimicrobial activity against Pseudomonas aeruginosa isolate 3020R obtained from cystic fibrosis patient by agar dilution method
[11] = tested on: Pseudomonas aeruginosa; test: Antimicrobial activity against Pseudomonas aeruginosa isolate 2721 obtained from cystic fibrosis patient by agar dilution method
[12] = tested on: Pseudomonas aeruginosa; test: Antimicrobial activity against ampicillin- and ticarcillin-resistant Pseudomonas aeruginosa FE60 mutant transformed with pAGH97 carrying mexXY operon by twofold macrodilution method; type: functional
[13] = tested on: Pseudomonas aeruginosa; test: Antimicrobial activity against Pseudomonas aeruginosa isolate 2804 obtained from cystic fibrosis patient by disk diffusion method; type: functional
[14] = tested on: Pseudomonas aeruginosa; test: Antimicrobial activity against Pseudomonas aeruginosa isolate 2715 obtained from cystic fibrosis patient by agar dilution method
[15] = tested on: Pseudomonas aeruginosa; test: Antimicrobial activity against Pseudomonas aeruginosa isolate 2858 obtained from cystic fibrosis patient by disk diffusion method; type: functional
[16] = tested on: Pseudomonas aeruginosa; test: Antimicrobial activity against Pseudomonas aeruginosa isolate 3020S obtained from cystic fibrosis patient by disk diffusion method; type: functional
[17] = tested on: Pseudomonas aeruginosa; test: Antimicrobial activity against mexXY deficient ampicillin- and ticarcillin-resistant Pseudomonas aeruginosa FE60 mutant by twofold macrodilution method; type: functional
[18] = tested on: Pseudomonas aeruginosa; test: Antimicrobial activity against Pseudomonas aeruginosa isolate 615S obtained from cystic fibrosis patient by disk diffusion method; type: functional
[19] = tested on: Pseudomonas aeruginosa; test: Antimicrobial activity against Pseudomonas aeruginosa PAO1 by twofold macrodilution method; type: functional
[20] = tested on: Pseudomonas aeruginosa; test: microbe, parasite or virus in culture; conditions: isolate 2716
Description: Antimicrobial activity against Pseudomonas aeruginosa isolate 2716 expressing inactivated mexB gene by disk diffusion method

[21] = tested on: Pseudomonas aeruginosa; test: microbe, parasite or virus in culture; conditions: isolate 3066
Description: Antimicrobial activity against Pseudomonas aeruginosa isolate 3066 expressing inactivated mexB gene by disk diffusion method

[22] = tested on: Pseudomonas aeruginosa; test: Antimicrobial activity against Pseudomonas aeruginosa isolate 2933 expressing inactivated mexB gene by disk diffusion method; type: functional
[23] = tested on: Pseudomonas aeruginosa; test: microbe, parasite or virus in culture; conditions: isolate 2715
Description: Antimicrobial activity against Pseudomonas aeruginosa isolate 2715 expressing inactivated mexB gene by disk diffusion method

[24] = tested on: Pseudomonas aeruginosa; test: Antimicrobial activity against mexXY operon inactivated Pseudomonas aeruginosa PAO1 by twofold macrodilution method; type: functional
[25] = tested on: Pseudomonas aeruginosa; test: Antimicrobial activity against Pseudomonas aeruginosa isolate 2721 expressing inactivated mexB gene by disk diffusion method; type: functional
[26] = tested on: Pseudomonas aeruginosa; test: microbe, parasite or virus in culture; conditions: isolate 615R
Description: Antimicrobial activity against Pseudomonas aeruginosa isolate 615R expressing inactivated mexB gene by disk diffusion method

[27] = tested on: Pseudomonas aeruginosa; test: microbe, parasite or virus in culture; conditions: isolate 3020S
Description: Antimicrobial activity against Pseudomonas aeruginosa isolate 3020S expressing inactivated mexB gene by disk diffusion method

[28] = tested on: Pseudomonas aeruginosa; test: microbe, parasite or virus in culture; conditions: isolate 2729
Description: Antimicrobial activity against Pseudomonas aeruginosa isolate 2729 expressing inactivated mexB gene by disk diffusion method

[29] = tested on: Pseudomonas aeruginosa; test: microbe, parasite or virus in culture; conditions: isolate 3020R
Description: Antimicrobial activity against Pseudomonas aeruginosa isolate 3020R expressing inactivated mexB gene by disk diffusion method

[30] = tested on: Pseudomonas aeruginosa; test: Antimicrobial activity against Pseudomonas aeruginosa isolate 2998 expressing inactivated mexB gene by disk diffusion method; type: functional
[31] = tested on: Pseudomonas aeruginosa; test: Antimicrobial activity against mexB gene inactivated Pseudomonas aeruginosa isolate 3020S obtained from cystic fibrosis patient by agar dilution method
[32] = tested on: Pseudomonas aeruginosa; test: Antimicrobial activity against Pseudomonas aeruginosa isolate 2933 obtained from cystic fibrosis patient
[33] = tested on: Pseudomonas aeruginosa; test: Antimicrobial activity against mexB gene inactivated Pseudomonas aeruginosa isolate 2721 obtained from cystic fibrosis patient by agar dilution method
[34] = tested on: Pseudomonas aeruginosa; test: Ratio of MIC for mexB deficient Pseudomonas aeruginosa FB1 mutant to Pseudomonas aeruginosa PAO1; type: functional
[35] = tested on: Pseudomonas aeruginosa; test: Antimicrobial activity against mexB gene inactivated Pseudomonas aeruginosa isolate 3020R obtained from cystic fibrosis patient by agar dilution method
[36] = tested on: Pseudomonas aeruginosa; test: Antimicrobial activity against Pseudomonas aeruginosa isolate 615R with inactivated mexB gene obtained from cystic fibrosis patient by disk diffusion method
[37] = tested on: Pseudomonas aeruginosa; test: Antimicrobial activity against Pseudomonas aeruginosa isolate 2998 obtained from cystic fibrosis patient
[38] = tested on: Pseudomonas aeruginosa; test: Antimicrobial activity against mexB gene inactivated Pseudomonas aeruginosa isolate 2716 obtained from cystic fibrosis patient by agar dilution method
[39] = tested on: Pseudomonas aeruginosa; test: Antimicrobial activity against mexB gene inactivated Pseudomonas aeruginosa isolate 2715 obtained from cystic fibrosis patient by agar dilution method
[40] = tested on: Pseudomonas aeruginosa; test: Antimicrobial activity against Pseudomonas aeruginosa isolate 3066 obtained from cystic fibrosis patient
[41] = tested on: Pseudomonas aeruginosa; test: Antimicrobial activity against Pseudomonas aeruginosa isolate 2729 obtained from cystic fibrosis patient
[42] = tested on: Pseudomonas aeruginosa; test: Antimicrobial activity against mexXY operon inactivated Pseudomonas aeruginosa isolate 615S obtained from cystic fibrosis patient by disk diffusion method; type: functional, organism-based
[43] = tested on: Pseudomonas aeruginosa; test: Antimicrobial activity against mexXY operon inactivated Pseudomonas aeruginosa isolate 2858 obtained from cystic fibrosis patient by disk diffusion method; type: functional, organism-based

Molecule	MIC [1] [µg/mL]	MIC [2] [µg/mL]	MIC [3] [µg/mL]	MIC [4] [µg/mL]	MIC [5] [µg/mL]	MIC [6] [µg/mL]	MIC [7] [µg/mL]	MIC [8] [µg/mL]	MIC [9] [µg/mL]	MIC [10] [µg/mL]	MIC [11] [µg/mL]	MIC [12] [µg/mL]	MIC [13] [µg/mL]	MIC [14] [µg/mL]	MIC [15] [µg/mL]	MIC [16] [µg/mL]	MIC [17] [µg/mL]	MIC [18] [µg/mL]	MIC [19] [µg/mL]	MIC [24] [µg/mL]	also measured
CO/N=C(\C(=O)N[C@@H]1C(=O)N2C(C(=O)[O-])=C(C[N+]3(C)CCCC3)CS[C@H]12)c1csc(N)n1	8 (≈ 16.6 µM)	8 (≈ 16.6 µM)	8 (≈ 16.6 µM)	32 (≈ 66.6 µM)	8 (≈ 16.6 µM)	4 (≈ 8.32 µM)	16 (≈ 33.3 µM)	8 (≈ 16.6 µM)	16 (≈ 33.3 µM)	4 (≈ 8.32 µM)	8 (≈ 16.6 µM)	8 (≈ 16.6 µM)	32 (≈ 66.6 µM)	16 (≈ 33.3 µM)	4 (≈ 8.32 µM)	–	–	–	–	–	–
NCC[C@H](O)C(=O)N[C@@H]1C[C@H](N)[C@@H](O[C@H]2O[C@H](CN)[C@@H](O)[C@H](O)[C@H]2O)[C@H](O)[C@H]1O[C@H]1O[C@H](CO)[C@@H](O)[C@H](N)[C@H]1O [AMIKACIN]	16 (≈ 27.3 µM)	8 (≈ 13.7 µM)	4 (≈ 6.83 µM)	128 (≈ 219 µM)	8 (≈ 13.7 µM)	16 (≈ 27.3 µM)	8 (≈ 13.7 µM)	16 (≈ 27.3 µM)	32 (≈ 54.6 µM)	32 (≈ 54.6 µM)	32 (≈ 54.6 µM)	4 (≈ 6.83 µM)	128 (≈ 219 µM)	8 (≈ 13.7 µM)	8 (≈ 13.7 µM)	2 (≈ 3.42 µM)	0.5 (≈ 0.854 µM)	2 (≈ 3.42 µM)	2 (≈ 3.42 µM)	–	–
C[C@H]1[C@H](NC(=O)/C(=N\OC(C)(C)C(=O)O)c2csc(N)n2)C(=O)N1S(=O)(=O)O [AZTREONAM]	0.12 (≈ 0.276 µM)	0.25 (≈ 0.574 µM)	–	0.25 (≈ 0.574 µM)	–	0.25 (≈ 0.574 µM)	–	0.25 (≈ 0.574 µM)	0.25 (≈ 0.574 µM)	0.25 (≈ 0.574 µM)	0.25 (≈ 0.574 µM)	–	0.25 (≈ 0.574 µM)	0.5 (≈ 1.15 µM)	0.25 (≈ 0.574 µM)	–	–	0.12 (≈ 0.276 µM)	–	0.12 (≈ 0.276 µM)	MIC [20]: 0.25 µg/mL (≈ 0.574 µM); MIC [21]: 0.25 µg/mL (≈ 0.574 µM); MIC [22]: 0.12 µg/mL (≈ 0.276 µM); MIC [23]: 0.25 µg/mL (≈ 0.574 µM); MIC [25]: 0.12 µg/mL (≈ 0.276 µM); MIC [26]: 0.25 µg/mL (≈ 0.574 µM); MIC [27]: 0.25 µg/mL (≈ 0.574 µM); MIC [28]: 0.25 µg/mL (≈ 0.574 µM); MIC [29]: 0.25 µg/mL (≈ 0.574 µM); MIC [30]: 0.12 µg/mL (≈ 0.276 µM)
CC(C)(O/N=C(\C(=O)N[C@@H]1C(=O)N2C(C(=O)[O-])=C(C[n+]3ccccc3)CS[C@H]12)c1csc(N)n1)C(=O)O [CEFTAZIDIME]	0.5 (≈ 0.915 µM)	–	–	> 8	–	–	–	–	0.5 (≈ 0.915 µM)	–	0.5 (≈ 0.915 µM)	–	2 (≈ 3.66 µM)	–	4 (≈ 7.32 µM)	–	–	–	–	–	–
O=C(O)c1cn(C2CC2)c2cc(N3CCNCC3)c(F)cc2c1=O [CIPROFLOXACIN]	1 (≈ 3.02 µM)	–	–	16 (≈ 48.3 µM)	–	1 (≈ 3.02 µM)	1 (≈ 3.02 µM)	1 (≈ 3.02 µM)	–	–	1 (≈ 3.02 µM)	–	16 (≈ 48.3 µM)	1 (≈ 3.02 µM)	–	–	–	4 (≈ 12.1 µM)	–	–	–
CO[C@@H]1[C@@H](OC(N)=O)[C@@H](O)[C@H](Oc2ccc3c(O)c(NC(=O)c4ccc(O)c(CC=C(C)C)c4)c(=O)oc3c2C)OC1(C)C [NOVOBIOCIN]	32 (≈ 52.2 µM)	32 (≈ 52.2 µM)	–	32 (≈ 52.2 µM)	512 (≈ 836 µM)	4 (≈ 6.53 µM)	–	32 (≈ 52.2 µM)	8 (≈ 13.1 µM)	16 (≈ 26.1 µM)	32 (≈ 52.2 µM)	–	8 (≈ 13.1 µM)	16 (≈ 26.1 µM)	64 (≈ 104 µM)	512 (≈ 836 µM)	–	64 (≈ 104 µM)	512 (≈ 836 µM)	32 (≈ 52.2 µM)	MIC [31]: 8 µg/mL (≈ 13.1 µM); MIC [32]: 4 µg/mL (≈ 6.53 µM); MIC [33]: 32 µg/mL (≈ 52.2 µM); fold change (FC) [34]: 16; MIC [35]: 16 µg/mL (≈ 26.1 µM); MIC [36]: 4 µg/mL (≈ 6.53 µM); MIC [37]: 32 µg/mL (≈ 52.2 µM); MIC [38]: 32 µg/mL (≈ 52.2 µM); MIC [39]: 8 µg/mL (≈ 13.1 µM); MIC [40]: 32 µg/mL (≈ 52.2 µM); MIC [41]: 32 µg/mL (≈ 52.2 µM)
CC1(C)S[C@@H]2[C@H](NC(=O)[C@H](C(=O)O)c3ccsc3)C(=O)N2[C@H]1C(=O)O [TICARCILLIN]	0.5 (≈ 1.3 µM)	2 (≈ 5.2 µM)	–	2 (≈ 5.2 µM)	32 (≈ 83.2 µM)	2 (≈ 5.2 µM)	–	0.5 (≈ 1.3 µM)	0.5 (≈ 1.3 µM)	2 (≈ 5.2 µM)	2 (≈ 5.2 µM)	–	0.5 (≈ 1.3 µM)	2 (≈ 5.2 µM)	2 (≈ 5.2 µM)	16 (≈ 41.6 µM)	–	1 (≈ 2.6 µM)	32 (≈ 83.2 µM)	–	fold change (FC) [34]: 64
NC[C@H]1O[C@H](O[C@H]2[C@H](O)[C@@H](O[C@H]3O[C@H](CO)[C@@H](O)[C@H](N)[C@H]3O)[C@H](N)C[C@@H]2N)[C@H](N)C[C@@H]1O [TOBRAMYCIN]	4 (≈ 8.56 µM)	1 (≈ 2.14 µM)	0.5 (≈ 1.07 µM)	16 (≈ 34.2 µM)	1 (≈ 2.14 µM)	2 (≈ 4.28 µM)	1 (≈ 2.14 µM)	2 (≈ 4.28 µM)	4 (≈ 8.56 µM)	4 (≈ 8.56 µM)	4 (≈ 8.56 µM)	0.5 (≈ 1.07 µM)	64 (≈ 137 µM)	2 (≈ 4.28 µM)	1 (≈ 2.14 µM)	0.5 (≈ 1.07 µM)	0.06 (≈ 0.128 µM)	0.25 (≈ 0.535 µM)	0.5 (≈ 1.07 µM)	–	–
GENTAMICIN	–	–	1	64	2	8	2	8	16	–	–	1	64	–	4	2	0.125	1	1	0.125	MIC [42]: 0.125 µg/mL; MIC [43]: 0.125 µg/mL
